Results from PMC2784989 (Journal of medicinal chemistry, 2009).

Assays:
[1] = biological target: apurinic/apyrimidinic endonuclease (APE1) (Homo sapiens, UniProt P27695); assay: APE1 counter-screen gel-based assay; format: biochemical; conditions: up to 100 μM
[2] = tested on: HCT116 cells; assay: Cellular studies alone and in combination with CPT; format: cell-based; conditions: data not shown
[3] = biological target: T1, human Top1 (Homo sapiens, UniProt P11387); assay: Top1 DNA relaxation counter-screen assay; format: biochemical; conditions: up to 100 μM
T1 sequence (P11387 1-765): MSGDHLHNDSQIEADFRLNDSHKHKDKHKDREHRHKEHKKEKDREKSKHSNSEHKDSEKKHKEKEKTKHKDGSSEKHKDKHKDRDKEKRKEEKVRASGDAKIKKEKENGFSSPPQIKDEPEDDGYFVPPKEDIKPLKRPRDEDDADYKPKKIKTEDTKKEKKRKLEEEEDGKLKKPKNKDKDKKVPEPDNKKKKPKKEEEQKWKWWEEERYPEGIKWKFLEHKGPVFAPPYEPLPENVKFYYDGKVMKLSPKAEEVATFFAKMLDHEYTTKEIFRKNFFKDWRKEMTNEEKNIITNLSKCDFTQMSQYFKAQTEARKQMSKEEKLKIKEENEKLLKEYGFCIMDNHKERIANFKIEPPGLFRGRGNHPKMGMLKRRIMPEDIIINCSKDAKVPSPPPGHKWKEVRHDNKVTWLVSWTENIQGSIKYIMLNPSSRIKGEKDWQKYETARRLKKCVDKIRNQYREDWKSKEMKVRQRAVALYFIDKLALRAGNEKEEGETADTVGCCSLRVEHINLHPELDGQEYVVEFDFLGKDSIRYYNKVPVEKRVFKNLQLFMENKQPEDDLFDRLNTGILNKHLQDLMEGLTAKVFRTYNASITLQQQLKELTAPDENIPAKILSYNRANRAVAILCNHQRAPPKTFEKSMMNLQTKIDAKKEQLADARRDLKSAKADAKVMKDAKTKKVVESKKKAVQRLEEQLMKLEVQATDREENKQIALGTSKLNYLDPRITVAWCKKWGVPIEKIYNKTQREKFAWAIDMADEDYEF

[4] = biological target: Tdp1 H493R (SCAN1 mutant) (Homo sapiens, UniProt Q9NUW8, H493R); assay: SCAN1 mutant gel assay of Tdp1-DNA covalent complex formation; format: biochemical; conditions: 100 nM H493R; DNA sequencing and protein SDS-PAGE gels
Tdp1 H493R (SCAN1 mutant), sequence (Q9NUW8 whole entry H493R): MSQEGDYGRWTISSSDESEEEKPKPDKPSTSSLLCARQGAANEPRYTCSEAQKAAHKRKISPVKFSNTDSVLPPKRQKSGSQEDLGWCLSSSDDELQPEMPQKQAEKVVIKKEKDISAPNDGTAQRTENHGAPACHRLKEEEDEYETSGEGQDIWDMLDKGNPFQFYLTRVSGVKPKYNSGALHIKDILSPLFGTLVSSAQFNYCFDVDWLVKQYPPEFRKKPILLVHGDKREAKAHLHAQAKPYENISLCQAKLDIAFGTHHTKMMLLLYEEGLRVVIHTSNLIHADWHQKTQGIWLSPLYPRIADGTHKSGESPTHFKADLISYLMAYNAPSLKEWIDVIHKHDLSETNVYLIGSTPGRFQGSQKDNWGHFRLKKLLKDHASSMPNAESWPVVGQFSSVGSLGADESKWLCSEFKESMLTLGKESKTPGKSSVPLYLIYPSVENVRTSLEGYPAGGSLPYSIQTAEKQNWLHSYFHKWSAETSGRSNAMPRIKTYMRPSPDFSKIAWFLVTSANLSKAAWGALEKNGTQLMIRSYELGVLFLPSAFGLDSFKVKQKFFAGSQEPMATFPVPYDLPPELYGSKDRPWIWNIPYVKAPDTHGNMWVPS

[5] = biological target: T2, recombinant Tdp1 (Homo sapiens, UniProt Q9NUW8); assay: Surface plasmon resonance direct binding; conditions: ten successive 2-fold dilutions from 100 μM
T2 sequence (Q9NUW8 whole entry): as the sequence (Q9NUW8 whole entry H493R) above, with R493H counted along it

[6] = tested on: Tdp1; conditions: NCI-DTP diversity set screen; ref [31]; cited from earlier work
[7] = tested on: CPT-induced Top1-DNA cleavage complexes; assay: Immunocomplex of enzyme; format: cell-based; conditions: data not shown
[8] = biological target: T2, recombinant Tdp1; assay: Tdp1 gel-based assay; format: biochemical; conditions: single-stranded N14Y substrate
[9] = tested on: Tdp1; conditions: ref [28], [29]; cited from earlier work

apurinic/apyrimidinic endonuclease (APE1), sequence (P27695 whole entry): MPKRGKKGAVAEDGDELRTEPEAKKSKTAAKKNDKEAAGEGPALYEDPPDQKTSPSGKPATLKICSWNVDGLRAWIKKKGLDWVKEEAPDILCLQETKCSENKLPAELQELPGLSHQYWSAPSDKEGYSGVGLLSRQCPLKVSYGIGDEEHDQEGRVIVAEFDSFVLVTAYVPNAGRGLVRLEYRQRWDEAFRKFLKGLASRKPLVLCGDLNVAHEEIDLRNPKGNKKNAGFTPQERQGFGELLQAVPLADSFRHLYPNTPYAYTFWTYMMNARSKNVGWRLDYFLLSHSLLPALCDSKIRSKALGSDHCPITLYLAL

## C[C@]12CC[C@H]3[C@@H](CCC4=CC(=O)CC[C@@]43C)[C@@H]1CC[C@@H]2C(=O)COS(=O)(=O)c1ccc(Br)cc1 [compound 1, 4-Pregnen-21-ol-3,20-dione-21-(4-bromobenzenesufonate)]
[1]
  inhibition of APE1: No evidence for inhibition
[2]
  effect in combination with camptothecin in HCT116 cells: only an additive effect
[2]; up to 25 μM
  activity by itself in HCT116 cells: limited activity
[3]
  inhibition of human Top1 (DNA relaxation): No evidence for inhibition
[4]
  formation of Tdp1-DNA covalent complexes by H493R mutant: concentration-dependent decrease
[5]
  binding to surface-bound Tdp1 (SPR): direct binding
[6]
  inhibitory activity against Tdp1 in high-throughput screen: low micromolar concentrations
[7]
  enhancement of CPT-induced Top1-DNA cleavage complexes: did not observe an enhancement

## C[C@]12CC[C@H]3[C@@H](CCC4=CC(=O)CC[C@@]43C)[C@@H]1CC[C@@H]2C(=O)COS(C)(=O)=O [compound 7]
[5]
  binding to surface-bound Tdp1 (SPR): No interaction
[8]
  Tdp1 inhibitory activity (in words): minimally active

## CC(=O)[C@H]1CC[C@H]2[C@@H]3CCC4=CC(=O)CC[C@]4(C)[C@H]3CC[C@]12C [progesterone, reference compound]
[8]
  Tdp1 inhibitory activity (in words): weakly active

## [O]=[W](=[O])([O-])[O-] [tungstate]
[9]
  concentration at which Tdp1 is inhibited: millimolar concentrations

## [O]=[V]([O-])([O-])[O-] [vanadate]
[9]
  concentration at which Tdp1 is inhibited: millimolar concentrations
